One test has as its target T1, CBC (Homo sapiens, UniProt P52298).
T1 sequence (P52298 1-156): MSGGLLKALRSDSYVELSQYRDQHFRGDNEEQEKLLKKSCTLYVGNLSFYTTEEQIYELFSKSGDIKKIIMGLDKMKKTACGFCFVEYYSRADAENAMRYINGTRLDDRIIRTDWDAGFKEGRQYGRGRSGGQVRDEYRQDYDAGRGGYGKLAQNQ
T1 sequence (Q09161 20-790 partner): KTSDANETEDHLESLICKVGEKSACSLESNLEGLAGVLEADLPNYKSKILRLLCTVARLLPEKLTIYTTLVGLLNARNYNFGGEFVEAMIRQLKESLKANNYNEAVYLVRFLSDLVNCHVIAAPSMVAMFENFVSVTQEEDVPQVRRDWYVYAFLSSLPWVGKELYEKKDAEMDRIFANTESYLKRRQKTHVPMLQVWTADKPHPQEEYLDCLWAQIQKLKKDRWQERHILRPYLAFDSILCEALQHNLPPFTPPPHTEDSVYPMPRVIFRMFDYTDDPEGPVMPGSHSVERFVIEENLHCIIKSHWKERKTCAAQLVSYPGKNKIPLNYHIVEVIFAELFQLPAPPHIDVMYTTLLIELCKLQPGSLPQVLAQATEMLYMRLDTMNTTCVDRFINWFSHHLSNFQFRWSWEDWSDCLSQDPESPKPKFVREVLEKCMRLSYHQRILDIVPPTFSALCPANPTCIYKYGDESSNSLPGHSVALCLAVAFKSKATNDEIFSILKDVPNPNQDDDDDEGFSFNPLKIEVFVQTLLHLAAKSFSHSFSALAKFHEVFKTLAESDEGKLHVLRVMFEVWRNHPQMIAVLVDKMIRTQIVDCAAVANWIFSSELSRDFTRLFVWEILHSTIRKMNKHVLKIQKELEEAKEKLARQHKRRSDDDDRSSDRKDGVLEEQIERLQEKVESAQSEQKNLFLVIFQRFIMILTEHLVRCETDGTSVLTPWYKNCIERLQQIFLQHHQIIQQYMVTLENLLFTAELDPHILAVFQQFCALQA
Briefly: ITC, binding to CBC without cap analogue. Conditions: ITC (MicroCal ITC200), 25 °C, 20 mM HEPES, 120 mM NaCl, 2 mM TCEP, pH 7.8, single-site fit, no cap analogue pre-bound, mean ± SD of at least two independent experiments. The text has this:
hARS2 isoform-4 (871 residues, UniProt:Q9BXP5-4, also known as isoform-e, NP_001122326) constructs (residues 147–871, 147–845, 763–871, 763–845, 827–871) hNELF-E (NM_002904.5) (244–380, 244–360) and hPHAX (NM_032177.3) (1–394, 103–294, 103–308, 103–327) were cloned into pETM11 (EMBL). Full-length hNELF-E (1–380) was cloned into pFASTBac and CBP20 into pETM30. Primers used are given in Supplementary Table 2. All constructs were expressed in E. coli Rosetta 2 (Novagen), except full-length NELF-E and CBP80ΔNLS (CBP80 with residues 1–19 deleted[2]), which were expressed in High Five insect cells (Life Technology). Cells were harvested and lysed by sonication in lysis buffer containing 50 mM HEPES, pH 7.8, 300 mM NaCl, 10% (v/v) glycerol, 5 mM β-mercaptoethanol. Lysates were clarified by centrifugation and applied on an equilibrated Ni-sepharose column (GE Healthcare), washed with 20 mM imidazole in lysis buffer, and eluted with 300 mM imidazole in lysis buffer. While dialysing into 20 mM HEPES, pH 7.8, 120 mM NaCl, 10% (v/v) glycerol, 5 mM β-mercaptoethanol, the N-terminal 6-histidine-tag was cleaved with His-tagged Tobacco Etch Virus (TEV) protease overnight in a ratio 1:100 mg TEV per mg protein. The cleaved protein was further purified first on Ni-sepharose to remove TEV and then using an anion exchange column (HiTrap Q, GE Healthcare) followed if necessary by a Heparin column (GE Healthcare). In both cases a NaCl gradient from 50 to 800 mM in 20 mM HEPES 7.8, 0.5 mM tris(2-carboxyethyl)phosphine was used. To reconstitute the CBC heterodimer, cleared His-tagged CBP20 lysate was first immobilised on a Ni-sepharose column. After washing the column with lysis buffer, the cleared CBP80 lysate was applied to the column and further purification steps performed as described above. To remove the access of CBP20 the flow through of the Ni-column after TEV cleavage was loaded on an anion exchange column (HiTrap Q, GE Healthcare) and CBC eluted by a NaCl gradient as described above. In the text we refer to CBP80ΔNLS and CBP80ΔNLS-CBP20 as CBP80 and CBC, respectively. […]

The target of the next test is T2, CBC-ARS2 827–871 (Homo sapiens, UniProt P52298).
T2 sequence (P52298 1-156): T1 sequence (P52298 1-156)
T2 sequence (Q09161 20-790 partner): T1 sequence (Q09161 20-790 partner)
T2 sequence (Q9BXP5 832-876 partner): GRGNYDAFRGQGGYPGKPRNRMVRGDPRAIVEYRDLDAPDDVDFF
Put plainly: ITC, m^7GTP titrated to CBC saturated with ARS2 827–871. The test is classed as binding. The text has this: Supplementary Figure 7. Influence of ARS2 and NELF-E on m7GTP binding to CBC.
Representative isothermal titration calorimetry data, presented as in the caption to Figure 1C,
allowing determination of the affinity of CBC to m7GTP in the absence (left) or in the
presence of bound ARS2827-871 (middle) or NELF-E244-380 (right). CBC or CBC saturated
with 2.2 molar excess of ARS2827-871 or NELF-E244-380 in the sample cell was titrated by
m7GTP. KD values represent the average from at least two independent experiments (see […]
For orientation: In ITC the heat of successive injections is recorded.

The Kd is the free concentration of one partner at which half of the binding sites on the other are occupied at equilibrium, for simple one-to-one binding. High values mean lower affinity, low ones higher affinity.

For `C[n+]1cn([C@@H]2O[C@H](COP(=O)(O)OP(=O)([O-])OP(=O)(O)O)[C@@H](O)[C@H]2O)c2nc(N)[nH]c(=O)c21` [m^7GTP], the Kd on CBC came to 100 nM; at CBC (SD) it was 126 ± 45 nM; on CBC-ARS2 827–871 (25 °C, pH 7.8, CBC saturated with 2.2 molar excess of ARS2 827–871, titrated by m^7GTP, mean ± SD of 2 experiments, SD), 18 ± 1 nM. The “Increase of the affinity of CBC for cap (m^7GTP) by saturating ARS2” value on CBC-ARS2 827–871 (compared to m^7GTP binding to CBC alone) is listed as ~ 7 factor.

These data come from PMC5670239, “Structural basis for mutually exclusive co-transcriptional nuclear cap-binding complexes with either NELF-E or ARS2” (Nature Communications, 2017).
